For series [1], the target named is recombinant human LDHA (Homo sapiens, UniProt P00338). Briefly: recombinant human LDHA enzyme assay (lactate to pyruvate, NADH via diaphorase/resazurin). (Resazurin is reduced to fluorescent resorufin, in cell work by metabolically active cells.)
Series [2] deals with Snu398 cells. The series can be described thus: Lactate production assay, Snu398 (RapidFire-MS).
In series [3] the target is recombinant human LDHB (Homo sapiens, UniProt P07195). The series can be described thus: recombinant human LDHB enzyme assay (lactate to pyruvate, NADH via diaphorase/resazurin).
Chain of recombinant human LDHB (P07195 whole entry): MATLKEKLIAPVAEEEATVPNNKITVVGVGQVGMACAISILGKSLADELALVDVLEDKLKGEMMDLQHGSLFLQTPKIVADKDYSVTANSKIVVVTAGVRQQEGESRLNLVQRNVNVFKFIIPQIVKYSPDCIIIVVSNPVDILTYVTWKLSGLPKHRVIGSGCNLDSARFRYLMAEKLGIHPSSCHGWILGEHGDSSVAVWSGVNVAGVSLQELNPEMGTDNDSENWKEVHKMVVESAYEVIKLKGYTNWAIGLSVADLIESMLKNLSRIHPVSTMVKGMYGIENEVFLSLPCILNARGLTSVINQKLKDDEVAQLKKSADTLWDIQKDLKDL
Series [4] relates to Snu398 cells. The series can be described thus: Compound cellular permeability assay, whole-cell extract. The class given is in vitro ADME, human. To be noted: Snu398 treated with 1 μM for 1.5 h. Here is the method:
Compound cellular permeability assays For cytosolic permeability assay, twelve million Snu398 cells were allowed to attach overnight and treated with DMSO control or 1 µM Compound 2 for 1.5 h in 1.7 mM glucose medium. The medium was removed, cells were washed in phosphate-buffered saline (PBS), and cytosolic extracts were prepared by solubilization in Qproteome lysis buffer (Qiagen, Valencia, CA). For whole-cell permeability assay, 75,000 Snu398 cells/well were plated in 96-well plates and treated with DMSO control or 1 µM compounds for 1.5h in low glucose medium. The medium was removed, cells were washed in PBS and solubilized in 50:50 mixture of methanol and acetonitrile. Compound concentration in the cytosolic or whole-cell extract was determined by LC/MS/MS analysis. An Acquity UPLC system (Waters Inc., Milford, MA) was coupled to an API 4000 or API 5000 triple-quad mass spectrometer (Applied Biosystems). […] Compound concentration in cells was determined by counting the number of cells in sample wells and assuming 3 pL/cell volume.

Broadly, the IC50 is the point on the concentration scale where inhibition reaches its midpoint. Consider `COc1ncc(-c2ccc3c(Nc4cc(Oc5ccc(F)cc5)cc(C(F)(F)F)c4)c(S(=O)(=O)NC4CC4)cnc3c2)c(OC)n1` [Compound 4], for which the half-maximal inhibitory concentration (IC50) in series [1] and in series [3] was above 50 µM in each case. In series [2] (Snu398), the “effect on cellular lactate production” value was “does not affect cellular lactate”.
Broadly, the EC50 is the concentration at which the effect is half-maximal. For `COc1ncc(-c2ccc3c(Nc4cc(Oc5ccc(F)cc5)cc(S(N)(=O)=O)c4)c(S(=O)(=O)NC4CC4)cnc3c2)c(OC)n1` [Compound 3], the concentration giving a half-maximal response (EC50) in series [2] (Homo sapiens, SNU-398, read-out: lactate production EC50) came to 3.3 ± 1.3 µM. For the same molecule, in series [4], the “apparent intracellular concentration versus medium” value was “higher apparent intracellular concentrations than that of the medium”. For the same molecule, the IC50 in series [3] came out at 0.055 ± 0.009 µM.
Consider `COc1cc2c(Nc3cccc(C(=O)O)c3)c(C(N)=O)cnc2cc1-c1c(C)noc1C`, for which the “mode of LDHA inhibition” value in series [1] was “NADH-competitive LDHA inhibitor”.
